Experimental data reported in patent publication US6414150B1, “4,5-disubstituted imidazole compounds” (SmithKline Beecham Corporation, priority 1996, dated 2002).

Tested on: human PGHS-2 protein expression in LPS stimulated human monocytes
Assay: Prostaglandin Endoperoxide Synthase-2 (PGHS-2) assay
Assay type: cell-based
Protocol: The following assay describes a method for determining the inhibitory effects of compounds of Formula (I) on human PGHS-2 protein expression in LPS stimulated human monocytes.
Method: Human peripheral blood monocytes were isolated from buffy coats by centrifugation through Ficoll and Percoll gradients. Cells were seeded at 2×10^6/well in 24 well plates and allowed to adhere for 1 hour in RPMI supplemented with 1% human AB serum, 20 mM L-glutamine, Penicillin-Streptomycin and 10 mM HEPES. Compounds were added at various concentrations and incubated at 37° C. for 10 minutes. LPS was added at 50 ng/well (to induce enzyme expression) and incubated overnight at 37° C. The supernatant was removed and cells washed once in cold PBS. The cells were lysed in […] of cold lysis buffer(50 mM Tris/HCl pH 7.5, 150 mM NaCl, 1% NP40, 0.5% sodium deoxycholate, 0.1% SDS, 300 ug/ml DNAse, 0.1% TRITON X-100, 1 mM PMSF, 1 mM leupeptin, 1 mM pepstatin). The lysate was centrifuged (10,000×g for 10 min. at 4° C.) to remove debris and the soluble fraction was subjected to SDS PAGE. analysis (12% gel). Protein separated on the gel were transferred onto nitrocellulose membrane by electrophoretic means for 2 hours at 60 volts. The membrane was pretreated for one hour in PBS/0.1% Tween 20 with 5% non-fat dry milk. After washing 3 times in PBS/Tween buffer, the membrane was incubated with a 1:2000 dilution of a monospecific antiserum to PGHS-2 or a 1:1000 dilution of an antiserum to PGHs-1 in PBS/Tween with 1% BSA for one hour with continuous shaking. The membrane was washed 3× in PBS/Tween and then incubated with a 1:3000 dilution of horseradish peroxidase conjugated donkey antiserum to rabbit Ig (Amersham) in PBS/Tween with 1% BSA for one hour with continuous shaking. The membrane was then washed 3× in PBS/Tween and the ECL immunodetection system (Amersham) was used to detect the level of expression of prostaglandin endoperoxide synthases-2.

[1] = LPS 50 ng/well overnight, Western blot

Structure (SMILES) | inhibition of LPS induced PGHS-2 protein expression (tested up to 10 uM) | inhibition of LPS induced PGHS-2 protein expression [1]
C[S+]([O-])c1ccc(-c2nc3n(c2-c2ccncc2)CCC3)cc1 (stereo not drawn) [2-(4-Methylsulfinylphenyl)-3-(4-pyridyl)-6,7-dihydro-(5H)-pyrrolo[1,2-a]imidazole] | inactive | –
Fc1ccc(-c2nc3n(c2-c2ccncc2)CCS3)cc1 [6-(4-Fluoro-phenyl)-2,3-dihydro-5-(4-pyridinyl)imidazo[2,1-b]thiazole] | – | active
C[C@@H]1C[C@H]2[C@@H]3CCC4=CC(=O)C=C[C@]4(C)[C@@]3(F)[C@@H](O)C[C@]2(C)[C@@]1(O)C(=O)CO [Dexamethasone] | – | active
CC(Cc1ccc(O)c(O)c1)C(C)Cc1ccc(O)c(O)c1 (stereo not drawn) [NDGA] | inactive | –
O=C1CCN(c2ccccc2)N1 [phenidone] | inactive | –
COc1ccc(C2CNC(=O)C2)cc1OC1CCCC1 (stereo not drawn) [rolipram] | inactive | –
